Data on 11 molecules can be found in patent US11964973B2 (priority 2019, dated 2024).

Like-named read-outs stand apart in the source and are kept apart here.

The target of assay [1] is T1, DGKα (Homo sapiens (Human), UniProt P23743). As to the kind of experiment: biochemical. The note with it: liposome (LIPGLO) assay; read-out: DGKα LIPGLO IC50. Format: biochemical.
A further assay has as its target human DGKζ (Homo sapiens (Human), UniProt Q13574). As to the kind of experiment: biochemical. Format: biochemical. The note with it: liposome (LIPGLO) assay; read-out: DGKζ LIPGLO IC50.
Assay [2] concerns naïve human CD8 T cells (IFN-γ). As to the kind of experiment: Human CD8 T cells IFN-γ assay. Format: cell-based. The note with it: T-cell. As to the method:
Assay 8: Human CD8 T Cells IFN-γ Assay
Frozen naïve human CD8 T cells were thawed in AIM-V media, incubated for 2 h in 37° C., and counted. The 384-well tissue culture plate was coated overnight at 4° C. with 20 μL anti-human CD3 at 0.05 μg/mL in PBS, which was removed off the plate before 40,000 cells per 40 microliters CD8 T cells with 0.1 μg/mL soluble anti-human CD28 were added to each well. The compounds were transferred using an Echo liquid handler to the cell plate immediately after the cells were plated. After 20 h incubation at 37° C. incubator, 3 microliters per well supernatants transferred into a new 384-well white assay plate for cytokine measurement.
Interferon-γ (IFN-γ) was quantitated using the AlphLISA kit (Cat #AL217) as described by the manufacturer manual (Perkin Elmer). The counts from each well were converted to IFN-γ concentration (pg/mL).

Assay [3] deals with Human venous whole blood (IFN-γ). As to the kind of experiment: Human whole blood IFN-γ assay. Format: cell-based. Here is the method:
Assay 10: Human Whole Blood IFN-γ Assay
Human venous whole blood (22.5 μL per well), obtained from healthy donors, was pre-treated with compounds for one hour at 37° C. in a humidified 95% air/5% CO2 incubator. The blood was stimulated with 2.5 μL anti-human CD3 and anti-CD28 mAb at a final concentration of 1 μg/mL each for 24 hours at 37° C. IFN-γ in the supernatants was measured using AlphLISA kit (Cat #AL217).

Assay [4] addresses T1, DGKα. Kind of assay: DGKα ADPGLO assay. It counts as biochemical.
For the next assay, the system named is naïve human CD8 T cells. As to the kind of experiment: CellTiter-Glo CD8 T cell proliferation assay. Format: cell-based. The note with it: Homo sapiens, read-out: CD8 GLO Normalized EC50. Put shortly:
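Thawed naïve human CD8 T cells (20 k/well) were stimulated with plate-bound anti-CD3 (0.1 μg/mL coating) and 0.5 μg/ml soluble anti-CD28, with compounds added right after plating. After 72 h at 37° C, proliferation was read by CellTiter-Glo luminescence. The signal from stimulated cells was taken as background.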
A general note: Cellular ATP, detected with luciferase, serves as a proxy for viable cell number.

Assay [5] has as its system OT-1 CD8+ T cells with SIINFEKL-loaded MC38 tumor cells. As to the kind of experiment: Murine cytotoxic T lymphocyte assay (IFN-γ). The note with it: Mus musculus, MC-38; for IC50: murine cytotoxic T lymphocyte, IFN-γ, read-out: msCTL INFg IC50; for EC50: murine cytotoxic T lymphocyte assay, read-out: msCTL. It counts as cell-based, mouse. Put shortly: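 OT-1 CD8+ T cells, expanded 5 days with OVA peptide and mIL2, pretreated 1 h with DGK inhibitor, then cocultured overnight at 37 °C with peptide-pulsed MC38 cells (1:10 ratio). IFN-γ in supernatant measured after 24 h by AlphaLisa.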

The mark [6] stands for this setting: read-out: HuCD8 INFG Normalized EC50.
[7] abbreviates: human whole blood, anti-CD3 plus anti-CD28, 24 hours, read-out: INFg Whole Blood Normalized Agonist EC50.
[8] abbreviates: Homo sapiens, 24 h, human whole blood, anti-CD3 plus anti-CD28, 24 hours, read-out: INFg Whole Blood Normalized Agonist EC50.
The mark [9] stands for this setting: Homo sapiens, human whole blood IFN-γ, read-out: INFg Whole Blood.

T1 sequence (P23743 whole entry, looked up): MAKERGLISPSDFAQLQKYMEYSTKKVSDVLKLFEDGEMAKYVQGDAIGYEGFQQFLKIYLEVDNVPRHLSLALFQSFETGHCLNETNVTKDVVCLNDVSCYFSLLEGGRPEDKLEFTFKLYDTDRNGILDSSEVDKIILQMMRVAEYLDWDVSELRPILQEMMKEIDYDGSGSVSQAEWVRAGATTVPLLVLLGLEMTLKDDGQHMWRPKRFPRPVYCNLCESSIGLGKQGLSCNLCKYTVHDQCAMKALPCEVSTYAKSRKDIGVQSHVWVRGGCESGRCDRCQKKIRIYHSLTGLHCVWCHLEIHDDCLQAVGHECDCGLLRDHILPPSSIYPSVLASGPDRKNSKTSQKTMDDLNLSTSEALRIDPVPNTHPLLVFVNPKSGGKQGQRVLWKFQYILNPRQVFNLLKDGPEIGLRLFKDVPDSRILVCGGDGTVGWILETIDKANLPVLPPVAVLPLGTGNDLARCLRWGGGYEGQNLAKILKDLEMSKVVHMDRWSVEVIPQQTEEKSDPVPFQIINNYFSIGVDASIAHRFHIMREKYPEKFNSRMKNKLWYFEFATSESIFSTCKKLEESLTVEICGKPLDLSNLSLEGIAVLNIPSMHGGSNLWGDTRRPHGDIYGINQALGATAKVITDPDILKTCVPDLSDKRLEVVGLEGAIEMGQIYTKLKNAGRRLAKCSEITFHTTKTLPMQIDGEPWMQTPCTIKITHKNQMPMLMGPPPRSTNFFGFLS
Sequence of human DGKζ (Q13574 whole entry, looked up): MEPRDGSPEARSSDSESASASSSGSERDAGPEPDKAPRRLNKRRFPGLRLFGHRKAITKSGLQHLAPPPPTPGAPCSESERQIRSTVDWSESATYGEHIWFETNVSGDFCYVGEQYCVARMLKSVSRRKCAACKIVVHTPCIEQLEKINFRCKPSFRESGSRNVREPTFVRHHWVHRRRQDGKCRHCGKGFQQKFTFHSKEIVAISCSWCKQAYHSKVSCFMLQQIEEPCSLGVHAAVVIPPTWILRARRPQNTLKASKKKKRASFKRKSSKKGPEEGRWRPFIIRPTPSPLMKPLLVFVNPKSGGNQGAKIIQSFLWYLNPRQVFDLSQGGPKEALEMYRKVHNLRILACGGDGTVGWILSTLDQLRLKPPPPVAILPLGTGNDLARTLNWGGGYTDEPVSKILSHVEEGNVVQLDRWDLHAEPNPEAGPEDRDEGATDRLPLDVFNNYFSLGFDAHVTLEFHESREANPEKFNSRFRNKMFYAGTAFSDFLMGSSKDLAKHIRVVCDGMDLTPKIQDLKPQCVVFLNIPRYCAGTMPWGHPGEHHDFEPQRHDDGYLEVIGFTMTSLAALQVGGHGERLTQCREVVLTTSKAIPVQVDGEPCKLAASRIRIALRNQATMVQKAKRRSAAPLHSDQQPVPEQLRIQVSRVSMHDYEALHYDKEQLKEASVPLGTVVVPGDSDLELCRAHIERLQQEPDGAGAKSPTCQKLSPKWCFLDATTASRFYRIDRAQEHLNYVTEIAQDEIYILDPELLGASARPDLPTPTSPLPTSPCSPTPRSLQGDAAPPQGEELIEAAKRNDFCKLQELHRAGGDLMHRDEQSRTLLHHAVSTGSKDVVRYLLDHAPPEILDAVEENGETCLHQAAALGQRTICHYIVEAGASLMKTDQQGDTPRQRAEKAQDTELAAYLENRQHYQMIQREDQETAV

Broadly, the IC50 is the concentration at which inhibition is half-maximal. For `CCC(C)(C)c1ccc(O[C@@H]2CCN(c3cc(=O)n(C)c4ccc(C#N)nc34)C[C@H]2C)cc1` (single isomer, unassigned) [Example 83], the figures for the IC50 on DGKα [1] and at human DGKζ were 280 nM and 5800 nM, respectively. The EC50 stood at 2.5 nM in assay [2] (setting [6]) and 360 nM in assay [3] (setting [7]).
Consider `C[C@@H]1CN(c2cc(=O)n(C)c3ccc(C#N)nc23)CC[C@H]1Oc1cccc(C2CC2)c1` (single isomer, unassigned) [Example 92], for which the IC50 on DGKα [1] amounted to 28 nM; on human DGKζ it was 16000 nM; at DGKα [4], 0.51 nM. For the same molecule, the EC50 in assay [3] (setting [7]) turned out to be 910 nM.
For `CC[C@@H]1CN(c2cc(=O)n(C)c3ccc(C#N)nc23)CC[C@H]1Oc1cccc(C(C)C)c1` (single isomer, unassigned) [Example 138], the concentration for half-maximal inhibition (IC50) on DGKα [1] was 24 nM; at human DGKζ it was 800 nM; on DGKα [4] it was 5.2 nM. Also, in assay [3] (read-out: INFg Whole Blood Normalized Agonist EC50, human whole blood, anti-CD3 plus anti-CD28, 24 hours), the EC50 is 340 nM.
Consider `Cn1c(=O)c(C#N)c(N2CCC(Oc3ccc(C(C)(C)C)cc3)CC2)c2nc(Cl)ccc21` [Example 15, 4-(4-(4-(tert-butyl)phenoxy)piperidin-1-yl)-6-chloro-1-methyl-2-oxo-1,2-dihydro-1,5-naphthyridine-3-carbonitrile], for which the values for the IC50 (at DGKα [1]; at human DGKζ; in assay [5]) were 510 nM, 7400 nM and 290 nM, respectively. The values for the EC50 (in the assay on naïve human CD8 T cells; in assay [2] (setting [6]); in assay [3] (setting [8])) were 320 nM, 870 nM and 7600 nM, respectively.
In the case of `Cn1c(=O)c(C#N)c(N2CCC(Oc3ccccc3Cl)CC2)c2nc(Cl)ccc21` [Example 18, 6-chloro-4-(4-(2-chlorophenoxy)piperidin-1-yl)-1-methyl-2-oxo-1,2-dihydro-1,5-naphthyridine-3-carbonitrile], the IC50 on DGKα [1] was 2600 nM; on human DGKζ, 13000 nM; in assay [5], 1500 nM. In addition, the EC50 in the assay with naïve human CD8 T cells was determined as 79 nM; in assay [2] (setting [6]), 190 nM; in assay [3] (setting [8]), 10000 nM.
Regarding `Cc1ccc(OC2CCN(c3c(C#N)c(=O)n(C)c4ccc(Cl)nc34)CC2)cc1` [Example 21, 6-chloro-1-methyl-2-oxo-4-(4-(p-tolyloxy)piperidin-1-yl)-1,2-dihydro-1,5-naphthyridine-3-carbonitrile], the IC50 at DGKα [1] was found to be 770 nM; on human DGKζ, 7800 nM; in assay [5] it was 1700 nM. The EC50 with naïve human CD8 T cells turned out to be 92 nM; in assay [2] (setting [6]), 160 nM.
Regarding `Cn1c(=O)cc(N2CCC(Oc3ccc(OC(F)(F)F)cc3)CC2)c2nc(C#N)ccc21` [Example 52, 5-methyl-6-oxo-8-(4-(4-(trifluoromethoxy)phenoxy)piperidin-1-yl)-5,6-dihydro-1,5-naphthyridine-2-carbonitrile], the results for the IC50 (at DGKα [1]; on human DGKζ; in assay [5]) were 800 nM, 3800 nM and 150 nM, respectively. The EC50 was found to be 1000 nM in assay [2] (setting [6]) and 2700 nM in assay [3] (setting [8]).
On to `C[C@@H]1CN(c2cc(=O)n(C)c3ccc(C#N)nc23)CC[C@H]1Oc1ccc(OC(C)(C)C)cc1` [Example 85, 8-((3R,4R)-4-(4-(tert-butoxy)phenoxy)-3-methylpiperidin-1-yl)-5-methyl-6-oxo-5,6-dihydro-1,5-naphthyridine-2-carbonitrile], for which the IC50 at DGKα [1] turned out to be 80 nM. The EC50 stood at 610 nM in assay [2] (setting [6]) and 2200 nM in assay [3] (setting [7]).
In the case of `Cn1c(=O)c(F)c(N2CCC(Oc3ccc(OC(F)(F)F)cc3)CC2)c2nc(C#N)ccc21` [Example 237, 7-fluoro-5-methyl-6-oxo-8-(4-(4-(trifluoromethoxy)phenoxy)piperidin-1-yl)-5,6-dihydro-1,5-naphthyridine-2-carbonitrile], the EC50 in assay [5] is 200 nM; in assay [2] (read-out: HuCD8 INFG) it was 340 nM; in assay [3] (setting [9]), 3300 nM.
For `COc1ccc(-c2c(N3CCC(Oc4ccc(OC(F)(F)F)cc4)CC3)c3nc(C#N)ccc3n(C)c2=O)cn1` [Example 240, 7-(6-methoxypyridin-3-yl)-5-methyl-6-oxo-8-(4-(4-(trifluoromethoxy)phenoxy)piperidin-1-yl)-5,6-dihydro-1,5-naphthyridine-2-carbonitrile], the EC50 worked out at 580 nM in assay [5], 1000 nM in assay [2] (read-out: HuCD8 INFG) and 5300 nM in assay [3] (setting [9]).
Take `COc1cc(-c2c(N3CCC(Oc4ccc(OC(F)(F)F)cc4)CC3)c3nc(C#N)ccc3n(C)c2=O)ccn1` [Example 241, 7-(2-methoxypyridin-4-yl)-5-methyl-6-oxo-8-(4-(4-(trifluoromethoxy)phenoxy)piperidin-1-yl)-5,6-dihydro-1,5-naphthyridine-2-carbonitrile]: the EC50 in assay [5] amounted to 570 nM; in assay [2] (read-out: HuCD8 INFG), 1300 nM; in assay [3] (setting [9]), 10000 nM.
